Assay results taken from ChEMBL document CHEMBL1201862, “PubChem BioAssay data set” (2004).
The source made the active and inactive calls.

What was measured:
[1] = A Cell Based Secondary Assay To Explore Cytotoxicity of Compounds that Sensitize Mycobacterium Tuberculosis to Beta-Lactam Antibiotics.; assay type: functional
[2] = target: T1, Short transient receptor potential channel 4 (Mus musculus, UniProt Q9QUQ5); assay: block of DAMGO-driven TRPC4 calcium entry – cell-based, HEK293 TRPC4/mu-opioid, Fluo-4 calcium, dose response (AID 434942); assay type: functional;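 note: potency of inhibitors blocking the TRPC4 calcium response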
T1 sequence (Q9QUQ5 whole entry): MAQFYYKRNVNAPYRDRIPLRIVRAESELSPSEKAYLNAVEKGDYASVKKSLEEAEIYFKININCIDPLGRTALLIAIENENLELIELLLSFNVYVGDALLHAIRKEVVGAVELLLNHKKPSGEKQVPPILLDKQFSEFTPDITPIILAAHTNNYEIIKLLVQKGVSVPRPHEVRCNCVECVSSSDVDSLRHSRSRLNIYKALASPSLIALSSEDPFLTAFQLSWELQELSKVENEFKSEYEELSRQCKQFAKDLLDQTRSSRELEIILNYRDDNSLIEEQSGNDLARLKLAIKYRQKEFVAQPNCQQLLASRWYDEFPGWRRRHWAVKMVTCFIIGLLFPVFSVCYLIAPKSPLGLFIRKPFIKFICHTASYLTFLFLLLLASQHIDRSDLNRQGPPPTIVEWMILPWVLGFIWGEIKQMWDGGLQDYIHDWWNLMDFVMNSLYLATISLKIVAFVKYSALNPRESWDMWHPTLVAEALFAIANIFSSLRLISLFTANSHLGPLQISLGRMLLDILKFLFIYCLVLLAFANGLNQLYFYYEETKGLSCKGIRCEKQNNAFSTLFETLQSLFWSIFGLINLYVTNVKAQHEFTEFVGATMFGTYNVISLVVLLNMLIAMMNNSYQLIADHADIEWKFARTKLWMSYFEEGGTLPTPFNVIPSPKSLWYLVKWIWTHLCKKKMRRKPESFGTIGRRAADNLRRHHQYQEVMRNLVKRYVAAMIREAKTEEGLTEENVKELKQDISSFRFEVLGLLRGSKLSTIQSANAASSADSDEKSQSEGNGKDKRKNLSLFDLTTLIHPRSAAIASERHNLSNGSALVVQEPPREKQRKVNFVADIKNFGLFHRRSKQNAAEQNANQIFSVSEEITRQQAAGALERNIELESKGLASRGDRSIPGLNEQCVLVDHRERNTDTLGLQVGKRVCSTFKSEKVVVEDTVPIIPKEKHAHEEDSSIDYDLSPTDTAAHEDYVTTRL

[3] = target: Eukaryotic translation initiation factor 4E (Mus musculus, UniProt P63073); assay: blockers of eIF4G binding by eIF4E – biochemical, TR-FRET, dose response (AID 855); assay type: functional;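 note: potency for disrupting eIF4E binding to eIF4GI seen as loss of FRET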
[4] = blockers of CRF-binding protein–CRF-R2 complex – cell-based, uHTS hits, 384-well, dose response (AID 651639); assay type: functional, Homo sapiens; conditions: read-out: IC50_Mean
[5] = target: T2, Polyadenylate-binding protein 1 (Homo sapiens, UniProt P11940); assay: MLLE binding blockers, Cy5 peptide tracer – biochemical, fluorescence polarization, Cy5-PAM2 peptide, secondary, miRNA deadenylation inhibitor project, dose response (AID 602260); assay type: functional; conditions: read-out: IC50_Mean
[6] = tested on: Vero; assay: viability of Vero cells under compound – cytotoxicity control for flavivirus capping enzyme inhibitors (AID 588742); assay type: functional; conditions: Chlorocebus sabaeus
[7] = target: T2, Polyadenylate-binding protein 1; assay: MLLE domain peptide-binding blockers, IC50 – biochemical, fluorescence polarization, FITC-PAM2 peptide, dose response (AID 602259); assay type: functional; conditions: read-out: IC50_Mean
[8] = target: Genome polyprotein (dengue virus type 2, UniProt P29990); assay: flavivirus cap methylation enzyme inhibition – biochemical, confirmation dose response, primary screen (AID 588689); assay type: functional
[9] = target: T3, Corticotropin-releasing factor receptor 2/Corticotropin-releasing factor-binding protein (Homo sapiens, UniProt P24387+Q13324); assay: Dose Response confirmation of uHTS hits for small molecule antagonists of the CRF-binding protein and CRF-R2 receptor complex.; assay type: functional; conditions: read-out: IC50_Mean
T3 sequence (Q13324 whole entry): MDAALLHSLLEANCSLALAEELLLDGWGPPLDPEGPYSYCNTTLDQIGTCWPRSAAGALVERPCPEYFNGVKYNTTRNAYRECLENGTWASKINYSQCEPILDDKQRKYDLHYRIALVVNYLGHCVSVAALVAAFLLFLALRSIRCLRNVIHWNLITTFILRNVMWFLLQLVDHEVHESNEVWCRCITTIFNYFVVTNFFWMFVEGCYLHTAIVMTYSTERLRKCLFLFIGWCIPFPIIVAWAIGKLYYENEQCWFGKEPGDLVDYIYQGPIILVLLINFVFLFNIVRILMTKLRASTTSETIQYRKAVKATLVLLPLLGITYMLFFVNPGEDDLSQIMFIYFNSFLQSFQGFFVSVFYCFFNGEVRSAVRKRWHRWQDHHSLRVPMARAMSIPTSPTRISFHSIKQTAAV
T3 sequence (P24387 whole entry): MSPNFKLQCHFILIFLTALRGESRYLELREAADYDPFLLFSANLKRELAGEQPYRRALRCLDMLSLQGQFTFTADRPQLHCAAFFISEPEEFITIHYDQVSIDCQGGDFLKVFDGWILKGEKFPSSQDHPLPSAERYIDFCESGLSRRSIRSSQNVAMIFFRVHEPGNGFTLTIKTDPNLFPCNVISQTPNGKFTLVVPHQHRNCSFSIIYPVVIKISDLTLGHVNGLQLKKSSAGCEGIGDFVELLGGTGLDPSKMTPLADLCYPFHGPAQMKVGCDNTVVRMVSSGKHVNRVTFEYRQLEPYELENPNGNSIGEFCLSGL

[10] = target: T3, Corticotropin-releasing factor receptor 2/Corticotropin-releasing factor-binding protein; assay: activators of CRF receptor 2 with binding protein – uHTS hits, confirmation (AID 602473); assay type: functional; conditions: read-out: EC50_Mean

With CC(C)=CCC/C(C)=C/C=N/NC(=O)c1ccc([N+](=O)[O-])cc1 the CC50 [1] was > 40 µM (active).

For Cc1ccc(OCC(COCc2ccccc2)NC(C)C)cc1 (stereo unspecified), the EC50 [2] was 3.76 µM (active).

With OC(COC(c1ccccc1)c1ccccc1)CN1CCN(c2cccc(Cl)c2)CC1 (stereo unspecified) the CC50 [1] was > 40 µM (active).

With COc1cc(C2C(C(=O)c3ccccc3)=C(O)C(=O)N2c2ccccn2)ccc1O (stereo unspecified) the IC50 [3] was 50 µM (inactive).

With CC(C)N(Cc1nc(-c2ccccc2)no1)C(=O)COc1ccccc1 the IC50 [3] was > 64 µM (inactive).

For COc1cc(N=C(S)NCCC(c2ccccc2)c2ccccc2)c(OC)cc1Cl, the IC50 [4] was > 20 µM (inactive).

In the case of CSc1ccc(-c2nnn(CC(=O)NCc3ccccc3)n2)cc1, the CC50 [1] is reported as > 40 µM (active).

With COc1cc(/C=C2/C(=O)ON=C2C)ccc1OCc1cccc(F)c1 the IC50 [5] was > 66 µM (inactive), the CC50 [6] was 38.2 µM (active) and the IC50 [7] was 42.6 µM (inactive). The IC50 [8] was 24.1 µM (active).

For N#CN=C(Nc1cccc(F)c1)SCc1ccccc1, the IC50 [4] was > 20 µM (inactive).

In the case of Cc1ccc(C)c(N2CCN(S(=O)(=O)c3ccc4c(c3)C(C)(C)C(=O)N4C)CC2)c1, the IC50 [9] is reported as 38.6 µM (active), the IC50 [4] is reported as 9.45 µM (active) and the EC50 [10] is reported as > 53 µM (inactive).

With CCN(CC)CCN(C(=O)c1ccccc1OC)c1nc2ccc(F)cc2s1 the EC50 [2] was 2.11 µM (active).
